Measured values: patent US6660755B2, “Substituted diaryl or diheteroaryl methans, ethers and amines having retinoid agonist, antagonist or inverse agonist type biological activity” (Allergan, Inc., priority 1997, dated 2003)

How the values were obtained:
RARβ [1] = target: RARβ (Homo sapiens, UniProt P10826, E106G/G107S/G110V); test: PGR assay (RAR-P-GR holoreceptor transactivation), RARβ; assay type: cell-based; conditions: for Emax: 18 h; for EC50: PGR assay (transactivation), CV-1 cells, luciferase reporter
Text: (§1) A holoreceptor transactivation assay and a ligand binding assay which measure the antagonist/agonist like activity of the compounds of the invention, or their ability to bind to the several retinoid receptor subtypes, respectively, are described in published PCT Application No. WO WO93/11755 (particularly on pages 30-33 and 37-41) published on Jun. 24, 1993, the specification of which is also incorporated herein by reference. A detailed experimental procedure for holoreceptor transactivations has been described by Heyman et al. Cell 1992, 68, 397-406; Allegretto et al. J. Biol. Chem. 1993 268, 26625-26633, and Mangelsdorf et al. The Retinoids: Biology, Chemistry and Medicine, pp 319-349, Raven Press Ltd., New York, which are expressly incorporated herein by reference. The results obtained in this assay are expressed in EC50 numbers, as they are also in the chimeric receptor transactivation assay. The results of ligand binding assay are expressed in Kd numbers. (See Cheng et al. Biochemical Pharmacology 22, 3099-3108, expressly incorporated herein by reference.) Still another transactivation assay, the “PGR assay” is described in the publication Klein et al. J. Biol. Chem. 1996, 271, 22692-22696, which is expressly incorporated herein by reference, and a detailed description is also provided below. The results of the PGR assay are also expressed in EC50 numbers (nanomolar concentration).
(§2) RAR-P-GR holoreceptor Transactivation Assay
(§3) CV-1 cells (4×10^5 cells/well) were transiently transfected with the luciferase reporter plasmid MTV-4(R5G)-Luc (0.7 μg/well) containing four copies of the R5G retinoid DNA response element along with the RXRα expression plasmid pRS-hRXRa (0.1 μg/well) and one of the RAR-P-GR expression plasmids (0.05 μg/well) in 12 well plates via calcium phosphate precipitation Chen et al. Mol. Cell. Biol. 1987, 7, 2745-2752 as described by Klein et al. J. Biol. Chem. 1996, 271, 22692, referenced above. The three different RAR-P-GR expression plasmids, pRS-RARα-P-GR, pcDNA3-RARβ-P-GR and pcDNA3-RARγ-P-GR, express RARα, RARβ and RARγ receptors, respectively, which contain modified DNA binding domains such that their “P-boxes” have been altered to that of the glucocorticoid receptor. These RAR-P-GR receptors bind to DNA as heterodimeric complexes with RXR. Specifically, the RAR-P-GR receptors bind retinoic acid response elements designated R5G, comprised of two RAR half sites (nucleotide sequence 5′-GGTTCA-3′) separated by 5 base pairs in which the 3′-half site has been modified to that of a glucocorticoid receptor half site, 5′-AGAACA-3′. To allow for various in transfection efficiency a β-galactosidase expression plasmid (0.01 μg/well) was used as an internal control. Alternatively, the assay was performed in a 96-well microtiter plate format (5000 cells/well) in a manner which was identical to that described above except ⅕ of the amount of the DNA-calcium phosphate precipitant (20 μl instead of 100 Al) was applied to each well. Eighteen hours after introduction of the DNA precipitants, cells were rinsed with phosphate buffered saline (PBS) and fed with D-MEM (Gibco-BRL) containing 10% activated charcoal extracted fetal bovine serum (Gemini Bio-Products). After rinsing with PBS cells were lysed with luciferase activity was measured as previously described in de Wet Mol. Cell. Biol. 1987, 7, 725-737. Luciferase values represent the mean±SEM of triplicate determinations normalized to β-galactosidase activity. The results of the PGR assay are also expressed in EC50 numbers (nanomolar concentration).

RARγ = target: T1, RARγ (Homo sapiens, UniProt P13631, E108G/G109S/G112V); test: PGR assay (RAR-P-GR holoreceptor transactivation), RARγ; assay type: cell-based; conditions: for EC50: PGR assay (transactivation), CV-1 cells, luciferase reporter; for % Efficiency RARγ: efficiency relative to all-trans-retinoic acid, PGR assay
T1 construct: expressed in transfected cells; host or cells: CV-1 cells
T1 sequence (P13631 1-454 E108G/G109S/G112V): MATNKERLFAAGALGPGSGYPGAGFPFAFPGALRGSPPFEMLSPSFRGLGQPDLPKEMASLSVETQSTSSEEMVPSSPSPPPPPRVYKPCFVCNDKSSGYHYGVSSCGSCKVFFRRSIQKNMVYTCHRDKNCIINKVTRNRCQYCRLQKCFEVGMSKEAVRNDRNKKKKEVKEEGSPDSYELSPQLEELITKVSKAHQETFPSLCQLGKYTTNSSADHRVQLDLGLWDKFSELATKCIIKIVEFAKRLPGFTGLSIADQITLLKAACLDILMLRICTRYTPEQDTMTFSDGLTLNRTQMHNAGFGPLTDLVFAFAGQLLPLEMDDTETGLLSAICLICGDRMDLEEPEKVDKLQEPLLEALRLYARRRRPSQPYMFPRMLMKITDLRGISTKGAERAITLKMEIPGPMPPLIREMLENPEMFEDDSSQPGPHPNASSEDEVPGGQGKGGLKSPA
T1 sequence (P19793 1-462 partner): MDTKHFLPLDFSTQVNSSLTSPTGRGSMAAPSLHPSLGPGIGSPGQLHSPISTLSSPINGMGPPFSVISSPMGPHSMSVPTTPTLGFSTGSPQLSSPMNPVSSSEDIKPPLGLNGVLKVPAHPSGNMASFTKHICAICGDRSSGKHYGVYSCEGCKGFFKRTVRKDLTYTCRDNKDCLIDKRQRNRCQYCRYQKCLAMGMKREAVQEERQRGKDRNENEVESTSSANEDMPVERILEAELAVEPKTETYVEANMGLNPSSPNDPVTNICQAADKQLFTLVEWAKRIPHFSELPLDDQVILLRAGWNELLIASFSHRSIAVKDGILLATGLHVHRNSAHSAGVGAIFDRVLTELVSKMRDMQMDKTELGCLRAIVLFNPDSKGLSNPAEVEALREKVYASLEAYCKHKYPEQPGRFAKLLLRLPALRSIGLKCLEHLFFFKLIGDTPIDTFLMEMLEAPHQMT
Text: as §1, §2, §3

RARβ [2] = target: T2, RARβ (Homo sapiens, UniProt P10826); test: Ligand binding assay, RARβ; conditions: read-out: Kd RABβ
T2 sequence (P10826 1-455): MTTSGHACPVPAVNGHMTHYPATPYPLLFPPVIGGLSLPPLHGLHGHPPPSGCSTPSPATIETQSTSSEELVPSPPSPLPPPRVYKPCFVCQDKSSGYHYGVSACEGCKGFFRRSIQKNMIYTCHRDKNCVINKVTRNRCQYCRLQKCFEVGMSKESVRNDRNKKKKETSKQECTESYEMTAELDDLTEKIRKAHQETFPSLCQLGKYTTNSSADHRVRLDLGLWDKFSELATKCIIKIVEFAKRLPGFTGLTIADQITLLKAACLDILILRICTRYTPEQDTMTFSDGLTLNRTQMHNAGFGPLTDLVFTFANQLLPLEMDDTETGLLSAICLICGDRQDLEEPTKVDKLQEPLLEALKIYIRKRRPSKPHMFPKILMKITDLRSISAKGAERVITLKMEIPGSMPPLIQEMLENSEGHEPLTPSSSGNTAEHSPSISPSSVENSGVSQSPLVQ
Text: as §1

[3] = efficiency relative to all-trans-retinoic acid, PGR assay

Chain of RARβ (Homo sapiens, UniProt P10826, E106G/G107S/G110V) (P10826 whole entry E106G/G107S/G110V, one chain of several): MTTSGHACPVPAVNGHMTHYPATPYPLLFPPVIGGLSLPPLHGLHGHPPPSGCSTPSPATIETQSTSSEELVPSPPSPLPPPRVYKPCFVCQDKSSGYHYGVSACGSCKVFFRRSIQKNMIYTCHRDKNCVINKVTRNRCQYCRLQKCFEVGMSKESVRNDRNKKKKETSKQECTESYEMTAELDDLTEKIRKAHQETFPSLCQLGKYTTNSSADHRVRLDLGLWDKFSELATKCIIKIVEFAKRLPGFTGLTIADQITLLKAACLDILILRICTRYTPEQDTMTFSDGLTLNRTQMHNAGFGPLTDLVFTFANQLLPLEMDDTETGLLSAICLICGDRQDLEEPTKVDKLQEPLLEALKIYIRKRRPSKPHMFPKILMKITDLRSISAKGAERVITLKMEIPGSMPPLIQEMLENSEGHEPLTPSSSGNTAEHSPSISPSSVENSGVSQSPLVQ

Emax (RARβ [1]; [3]) [%] | EC50 (RARβ [1]) [µM] | EC50 (RARγ) [µM] | % Efficiency RARγ (RARγ) [%] | Kd (RARβ [2]) [µM] | % Efficiency RARβ (RARβ [1]; [3]) [%] | SMILES
0 | > 10 | > 10 | 0 | 0.014 |  | COC(=O)c1ccc(Oc2cc(C#Cc3ccc(C(=O)O)c(F)c3)ccc2C(C)(C)C)cc1 [Compound 10, 4-[[4′-tert-Butyl-3′-(4″-carbomethoxy)phenoxy]phenylethynyl]-2-fluorobenzoic Acid]
3 | > 10 | > 10 | 1 | 0.034 |  | CC(C)(C)c1ccc(C#Cc2ccc(C(=O)O)c(F)c2)cc1Oc1ccc([N+](=O)[O-])cc1 [Compound 11, 4-[[4′-tert-Butyl-3′-(4″-nitro)phenoxy]phenylethynyl]-2-fluoro-benzoic Acid]
5 | > 10 | > 10 | 4 | 4.57 |  | CC(C)(C)c1ccc(C(=O)Nc2ccc(C(=O)O)c(F)c2)cc1Oc1ccc(C(F)(F)F)cc1 [Compound 13, 4-[[4′-tert-Butyl-3′-(4″-trifluoromethyl)phenoxy]benzoylamino]-2-fluorobenzoic Acid]
 | > 10 | > 10 | 70 | 0.113 | 0 | CC(C)(C)c1ccc(C#Cc2ccc(C(=O)O)cn2)cc1Oc1ccc(C(F)(F)F)cc1 [Compound 6, 6-[[4′-tert-Butyl-3′-(4″-trifluomethyl)phenoxy]phenylethynyl]-3-nicotinic Acid]
